Data set [1] addresses LXRα (Homo sapiens, UniProt Q13133). The experiment in a line: Luciferase reporter gene assay LXRα, HepG2. In general terms: Reporter assays use an easily measured gene product as a stand-in for the process of interest.
Source text: (§1) Gal4-LBD constructs of tested nuclear receptors have been used together with pGL4.31[luc2P/GAL4UAS/Hygro] luciferase reporter construct and pRL-TK Renilla expression vector (both from Promega, Hercules, USA) in HepG2 cells transfected with Lipofectamine 2000 or 3000 reagents. For GRα and FXR receptors, full-length expression vectors have been used with pGRE-luc or pFXRE-luc luciferase constructs. For the aryl hydrocarbon receptor (AhR), p1A1-luc construct was used with only pRL-TK vector for transfection normalization. A dual reporter assay (Promega, Hercules, USA) was used to analyze both firefly and Renilla luciferase activities.
(§2) Gal4-LBD constructs of tested nuclear receptors have been used together with pGL5-luc luciferase reporter construct and pRL-TK Renilla expression vector in HepG2 cells transfected with Lipofectamine 2000 or 3000 reagents. For GRα and FXR receptors, full-length expression vectors have been used with pGRE-luc or pFXRE-luc luciferase constructs. For the aryl hydrocarbon receptor (AhR), p1A1-luc construct was used with only pRL-TK vector for transfection normalization. […] Bars represent means±S.D. (n=3).
Data set [2] has as its target ERβ (Homo sapiens, UniProt Q92731). The data set is described as follows: Luciferase reporter gene assay ERβ, HepG2.
Source text: as §1, §2
For data set [3], the system named is humanized PXR-CAR-CYP3A4/3A7 mice, liver. The experiment in a line: NGS RNA-Seq of liver samples (HFD study). It is filed as in vivo, mouse. As for the experimental part:
Total RNA from liver samples has been isolated using TRIZOL®. Total RNA was purified using Agencourt RNAClean XP Beads (Beckman Coulter, Inc.) and then the diluted RNA was quantified using Qubit 2.0 Fluorometer with Qubit RNA BR Assay Kit (Invitrogen) for precise measurement. The integrity of purified RNA was evaluated based on RIN (>7) acquired using the 2100 Bioanalyzer System with Total RNA Nano Chip (Agilent Technologies) according to the manufacturer’s protocol.
The input amount of total RNA used in the libraries was 520 ng. Libraries were constructed with NEBNext Ultra II Directional RNA Library Prep Kit for Illumina (New England Biolabs Inc., Ipswich, MA, USA). […] The samples were multiplexed using suitable molecular barcodes by using the NEBNext Multiplex Oligos from Illumina. Adaptor enrichment was performed by using eight cycles of PCR.
The concentration of molecular libraries was measured using Qubit 2.0 Fluorometer with Qubit dsDNA HS Assay Kit (Invitrogen) and subsequently, the fragment sizes were analyzed by Bioanalyzer System 2100 using High Sensitivity DNA Chip (Agilent Technologies), with expected fragments between 200 and 600 bp in size. The molarity of individual libraries was calculated using determined concentrations and modal lengths. Each sample of the library was normalized to 14 nM concentration, and the normalized libraries were pooled and sequenced on an Illumina NovaSeq6000 platform (Illumina) with paired-end sequencing of libraries with a read length of 150 b.
The quality of raw sequencing data was assessed using MultiQC tool. Fastq files were aligned to the mouse reference genome (mm10) using STAR aligner and featureCounts was used to make count matrices. Data was filtered to only include genes with a minimum 60 counts in all samples. Data were analyzed using the DESeq2 package of RStudio 2023.06.1 and R software v4.3.1 (https://www.R-project.org/). […] P values were adjusted for multiple testing to reduce false discovery rate. For further analysis RNAs with more than twofold expression were selected (log2FC > 1 or < –1). Differential expression was analyzed using DESeq2 package (Fig. 4a). Volcano plot was visualized using R package ggplot2 and ggrepel. Gene ontology (GO) and pathway analyses were done with the R package clusterProfiler[64] using function enrichGO. P value < 0.001 was defined as the significance threshold.
A heatmap was made using z-score normalized reads (z = [x-mean]/standard deviation) and visualized using the R package pheatmap. Hierarchical clustering was performed with the Ward method as a part of the pheatmap R package. The data presented in this publication have been deposited in NCBI’s Gene Expression Omnibus database with GEO Series accession number GSE262786.https://www.ncbi.nlm.nih.gov/geo/query/acc.cgi?acc=GSE262786.

Data set [4] deals with T1, human PXR LBD (Homo sapiens, UniProt O75469).
T1 construct: helix 1 part of the LBD of PXR (residues 132–188); helices 2-12 of the PXR-LBD (residues 189-434); expressed in transfected cells; host or cells: HepG2
T1 sequence (O75469 132-188): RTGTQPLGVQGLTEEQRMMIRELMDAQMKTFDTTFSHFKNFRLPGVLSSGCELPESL
T1 sequence (O75469 189-434): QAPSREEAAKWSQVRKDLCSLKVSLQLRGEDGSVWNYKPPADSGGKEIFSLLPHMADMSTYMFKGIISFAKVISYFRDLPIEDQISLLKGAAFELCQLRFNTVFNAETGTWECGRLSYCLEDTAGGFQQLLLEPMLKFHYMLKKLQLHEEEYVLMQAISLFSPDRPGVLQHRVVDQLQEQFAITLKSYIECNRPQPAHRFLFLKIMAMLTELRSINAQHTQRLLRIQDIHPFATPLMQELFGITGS
The data set is described as follows: PXR LBD assembly assay in HepG2 cells. It is filed as cell-based. An excerpt:
A human PXR LBD assembly assay (Fig. 1k) was done with expression plasmids encoding fusion protein of GAL4-DNA binding domain (DBD) and helix 1 part of the LBD of PXR (residues 132–188) and fusion protein of VP16 activation domain (AD) and helices 2-12 of the PXR-LBD (residues 189-434), respectively, which have all been described previously. Metridia luciferase expression plasmid pMetLuc2control was obtained by Takara-Clontech (Mountain View, CA, USA). Transient batch transfection of HepG2 cells was done in 96-well plates using Jet-PEI transfection reagent (Polyplus, Illkirch, France), as described previously. The following amounts of plasmid DNA per well were used: 0.24 µg pGL4-G5 and 0.03 µg each of expression plasmids encoding GAL4-DBD/PXR(132-188) and VP16-AD/PXR(189-434). All transfections included 0.01 µg pMetLuc2control per well for normalization of firefly luciferase reporter activities. After overnight incubation with the transfection mixtures, cells were treated with chemicals in a volume of 100 µl of cell culture medium. […] Firefly luciferase activity was measured in 10 µl of cell lysates, and Metridia luciferase activity was analyzed in 10 µl of medium supernatant, both as described before. Results were normalized by dividing firefly luciferase activity by Metridia luciferase activity measured from the same well.

We go through one molecule from article PMC11802874, “The hypolipidemic effect of MI-883, the combined CAR agonist/ PXR antagonist, in diet-induced hypercholesterolemia model” (Nature Communications, 2025).

SMILES strings stand for the structures. Values joined by “and” are separate entries in the source; they are usually repeats but may differ in a detail not shown here. Identical values can stand only once.

Sequence of LXRα (Q13133 209-447 limits assumed): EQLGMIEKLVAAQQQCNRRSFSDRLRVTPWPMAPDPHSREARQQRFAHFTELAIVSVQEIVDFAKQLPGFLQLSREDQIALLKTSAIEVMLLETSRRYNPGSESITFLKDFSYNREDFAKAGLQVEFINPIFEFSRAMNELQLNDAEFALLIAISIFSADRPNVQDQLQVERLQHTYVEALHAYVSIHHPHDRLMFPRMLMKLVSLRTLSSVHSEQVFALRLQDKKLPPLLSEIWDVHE
Sequence of ERβ (Q92731 264-498 limits assumed, species assumed): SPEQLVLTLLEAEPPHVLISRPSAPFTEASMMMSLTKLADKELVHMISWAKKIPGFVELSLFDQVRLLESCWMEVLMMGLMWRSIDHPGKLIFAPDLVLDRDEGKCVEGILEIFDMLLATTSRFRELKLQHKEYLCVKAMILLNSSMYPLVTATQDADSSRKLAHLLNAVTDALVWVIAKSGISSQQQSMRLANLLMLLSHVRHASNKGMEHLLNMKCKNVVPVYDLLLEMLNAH

As to `NC(=O)c1cc(Cn2cc(-c3c(-c4ccc(Cl)cc4)nc4cc(F)ccn34)nn2)ccc1Cl` [MI-883, 2-chloro-5-((4-(2-(4-chlorophenyl)-7-fluoroimidazo[1,2-a]pyridin-3-yl)-1H-1,2,3-triazol-1-yl)methyl)benzamide], in data set [1], the “NRs assays: GAL4-LXR+RXR (relative to ctrl, replicates)” value is 0.88 and 1.89 and 2.24. Moreover, in data set [2], the “NRs assays: ERbeta (relative to ctrl, replicates)” value is 0.84 and 0.86 and 0.88. For the same molecule, in data set [3] (HFD study), the “liver Apoc1, Apoc4, Apoa5, Apoa1, RNA-Seq” value is recorded as “marginally but significantly downregulated”; the “liver Scarb1, Angptl3, Lipc, RNA-Seq” value is on record as “marginally, but significantly, downregulated”; the “liver genes of fatty acid metabolism (Scd1, Fabp2, Srebf1), RNA-Seq” value is recorded as “significantly downregulated”; the “liver transporters Abcb1, Bsep, Abcg5/8” value is listed as “not been significantly affected”. Besides, in data set [3] (HFD study (Fig. 6e)), the “liver Hmgcr mRNA upregulation” value is 1.31 fold and 1.3 fold. The “liver Scd1 mRNA, log2FC_DESeq” value in data set [3] (HFD study, n=5, FDR_DESeq 0.0023) is -0.4854 log2FC. In addition, in data set [3] (HFD study, 0.008 FDR_DESeq), the “liver Cyp2c70, log2FC” value was “–0.58 log2FC”. Besides, in data set [4], the “PXR LBD assembly” value is reported as “stimulates”.
